Assay results published in patent US7973083B2, “Pesticidally active compounds” (priority 2003, dated 2011).

Tests used:
Assay type in all cases: in vivo
Corn ‘NK58D1 = assay: Field test, corn phytotoxicity after herbicide with or without insecticide (Table I); conditions: scale 0-100
Method: (§1) Field tests were conducted in the following way: Corn was seeded with standard sowing implements and grown under natural conditions until the 2-3 leaf stage of corn was reached. Corn with or without insecticide treatments applied at seeding was grown at the same time. At 2-3 leaf stage, the herbicides only or in combination with the insecticide, if the insecticide has not been applied at seeding, was applied broadcast foliar over the top. At highest phytotoxicity levels for corn at five days after application and at maximal weed control levels at 16 days after application, the trial was evaluated.

Sweet Corn ‘Jubilee SS = assay: Field test, sweet corn phytotoxicity after herbicide with or without insecticide (Table I); conditions: scale 0-100
Method: as §1

Amaranthus retroflexus = assay: Field test, weed control (Table I); conditions: scale 0-100
Method: as §1

Solanum Nigrum [1] = assay: Glasshouse test, insecticide pre-plant incorporated followed by post application of herbicide, weed control (Table 2); conditions: no insecticide, 43 days after last application
Excerpt: (§2) Insecticide Pre-Plant Incorporated Followed by Post Application of the Herbicide
(§3) Prior to the planting of corn and weed, the substrate was filled into plastic pots and the different insecticides were applied with glasshouse spray equipment on bare soil at rates indicated in the results table. After the insecticide application, the substrate in the pots was mixed up in order to get an even distribution of the insecticide throughout the pot Crop and weed were planted following this procedure and grown under standard glasshouse conditions allowing optimal plant growth until 2-3 leaf stage. Then the herbicides were applied according to the rates indicated in the results table post emergent foliar over the top including standard adjuvants. The plants were visually evaluated on a scale of 0-100% wherein 0% indicated no phytotoxicity and 100% indicated full control or death. 0-15% indicates acceptable crop tolerance, 85-100% acceptable weed control. The evaluation was done at the time when maximal phytotoxicity or activity occurred.

Corn Cecilia = assay: Glasshouse test, insecticide pre-plant incorporated followed by post application of herbicide, corn phytotoxicity (Table 2); conditions: no insecticide, 20 days after last application
Excerpt: as §2, §3

Solanum Nigrum [2] = assay: Glasshouse test, insecticide and herbicide tank-mixed post emergent, weed control (Table 3); conditions: no insecticide, 34 days after last application
Excerpt: (§4) Insecticide and Herbicide Applied Tank-Mixed Post Emergent
as §3, with “pots.” for “pots and the different insecticides were applied with glasshouse spray equipment on bare soil at rates indicated in the results table. After the insecticide application, the substrate in the pots was mixed up in order to get an even distribution of the insecticide throughout the pot”, “according” for “according to”

Corn Sweet honeycomb = assay: Glasshouse test, insecticide and herbicide tank-mixed post emergent, corn phytotoxicity (Table 3); conditions: no insecticide, 8 days after last application
Excerpt: as §4
as §3, with “pots.” for “pots and the different insecticides were applied with glasshouse spray equipment on bare soil at rates indicated in the results table. After the insecticide application, the substrate in the pots was mixed up in order to get an even distribution of the insecticide throughout the pot”, “according” for “according to”

[3] = insecticide alone, in furrow at seeding 11.2 GA/100 Row M, 5 days
[4] = insecticide alone, post 1120 GA/Ha, 5 days
[5] = insecticide alone, in furrow at seeding 11.2 GA/100 Row M, 16 days
[6] = herbicide post, mesotrione 210 GA/Ha (a.e. for Cu), no insecticide, 5 days after last application
[7] = herbicide post 400 GA/Ha, scale 0-100

CCOP(=S)(OCC)Oc1nc(Cl)c(Cl)cc1Cl [Chlorpyrifos]
Phytotox. (Corn ‘NK58D1; [3]): 0% | Phytotox. (Corn ‘NK58D1; [4]): 0% | Phytotox. (Sweet Corn ‘Jubilee SS; [3]): 0% | Phytotox. (Sweet Corn ‘Jubilee SS; [4]): 0% | Weed Control (Amaranthus retroflexus; [5]): 0% | Weed Control (Amaranthus retroflexus; insecticide alone, post 1120 GA/Ha, 16 days): 0%

CS(=O)(=O)c1ccc(C(=O)C2C(=O)CCCC2=O)c([N+](=O)[O-])c1 [Mesotrione, 2-(2′-nitro-4′-methylsulphonylbenzoyl)-1,3-cyclohexanedione]
Phytotox. (Corn ‘NK58D1; herbicide post, mesotrione 105 GA/Ha (a.e. for Cu), no insecticide, 5 days after last application, COC 1% V/V + UAN 2.5% V/V): 3.8% | Phytotox. (Corn ‘NK58D1; [6]): 8.8% | Weed Control (Solanum Nigrum [1]; herbicide post 100 GA/Ha): 98% | Weed Control (Solanum Nigrum [1]; herbicide post 200 GA/Ha): 100% | Weed Control (Solanum Nigrum [1]; [7]): 0% | Phytotox. (Sweet Corn ‘Jubilee SS; herbicide post, mesotrione 105 GA/Ha (a.e. for Cu), no insecticide, 5 days after last application): 16.3% | Phytotox. (Sweet Corn ‘Jubilee SS; [6]): 15% | Phytotox. (Corn Cecilia; herbicide post 100 GA/Ha): 5% | Phytotox. (Corn Cecilia; herbicide post 200 GA/Ha): 0% | Phytotox. (Corn Cecilia; [7]): 0% | Weed Control (Amaranthus retroflexus; herbicide post, mesotrione 105 GA/Ha (a.e. for Cu), no insecticide, 16 days after last application): 90% | Weed Control (Amaranthus retroflexus; herbicide post, mesotrione 210 GA/Ha (a.e. for Cu), no insecticide, 16 days after last application): 95% | Weed Control (Solanum Nigrum [2]; herbicide post 100 GA/Ha): 100% | Weed Control (Solanum Nigrum [2]; herbicide post 200 GA/Ha): 100% | Weed Control (Solanum Nigrum [2]; [7]): 100% | Phytotox. (Corn Sweet honeycomb; herbicide post 100 GA/Ha): 10% | Phytotox. (Corn Sweet honeycomb; herbicide post 200 GA/Ha): 20% | Phytotox. (Corn Sweet honeycomb; [7]): 20%

CCOP(=S)(OCC)SCSC(C)(C)C [Terbufos]
Phytotox. (Corn ‘NK58D1; [3]): 0% | Phytotox. (Sweet Corn ‘Jubilee SS; [3]): 0% | Weed Control (Amaranthus retroflexus; [5]): 0%
